Usually IC50 stands for the midpoint of a concentration-inhibition curve. High values mean weaker potency in that assay, low ones greater potency in that assay.

Counter-ions that a name gives are not always drawn.

In the first test the target is hERG (Homo sapiens, UniProt Q12809). The test is described as follows: cell-based.
hERG, sequence (Q12809 whole entry): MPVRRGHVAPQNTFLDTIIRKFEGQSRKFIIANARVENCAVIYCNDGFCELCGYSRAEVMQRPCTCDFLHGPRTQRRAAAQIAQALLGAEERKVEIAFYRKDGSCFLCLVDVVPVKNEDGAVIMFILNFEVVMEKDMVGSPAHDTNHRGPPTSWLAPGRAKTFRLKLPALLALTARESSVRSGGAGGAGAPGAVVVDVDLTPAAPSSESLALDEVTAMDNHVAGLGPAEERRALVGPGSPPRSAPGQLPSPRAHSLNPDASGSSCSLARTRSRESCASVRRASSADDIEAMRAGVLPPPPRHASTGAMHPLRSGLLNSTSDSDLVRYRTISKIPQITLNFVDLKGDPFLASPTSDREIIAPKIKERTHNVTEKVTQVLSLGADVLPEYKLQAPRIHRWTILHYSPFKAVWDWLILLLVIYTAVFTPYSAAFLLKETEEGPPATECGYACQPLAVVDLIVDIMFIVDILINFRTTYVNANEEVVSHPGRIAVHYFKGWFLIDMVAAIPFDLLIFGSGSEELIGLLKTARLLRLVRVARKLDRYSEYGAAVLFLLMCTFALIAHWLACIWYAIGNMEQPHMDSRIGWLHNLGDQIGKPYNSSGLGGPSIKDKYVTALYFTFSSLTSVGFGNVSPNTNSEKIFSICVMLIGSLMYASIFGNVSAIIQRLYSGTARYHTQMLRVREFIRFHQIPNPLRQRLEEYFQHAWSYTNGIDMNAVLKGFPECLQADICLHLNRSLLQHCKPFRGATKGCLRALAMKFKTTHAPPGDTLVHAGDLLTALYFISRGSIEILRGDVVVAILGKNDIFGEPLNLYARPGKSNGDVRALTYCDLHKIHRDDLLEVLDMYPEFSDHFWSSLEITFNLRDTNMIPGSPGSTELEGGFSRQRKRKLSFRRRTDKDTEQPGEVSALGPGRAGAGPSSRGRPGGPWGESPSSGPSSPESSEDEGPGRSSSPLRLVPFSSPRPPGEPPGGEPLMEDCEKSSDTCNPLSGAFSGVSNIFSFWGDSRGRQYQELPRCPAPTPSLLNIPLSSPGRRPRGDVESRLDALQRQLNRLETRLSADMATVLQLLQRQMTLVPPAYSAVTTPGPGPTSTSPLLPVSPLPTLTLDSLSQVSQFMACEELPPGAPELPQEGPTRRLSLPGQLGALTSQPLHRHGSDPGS
Conditions: not given
On to `O[C@@H](COc1cccc2ncccc12)CN1CCN([C@@H]2c3ccccc3[C@@H]3[C@H](c4ccccc42)C3(F)F)CC1` [LY335979 trihydrochloride], for which the IC50 was 12 µM.

Still in this test, the particulars now being: (-LOG10(IC50), µM).
As to `O=C1OC2(c3ccc(O)cc3Oc3cc(O)ccc32)c2ccccc21` [Fluorescein], the IC50 is 21.9 µM.
On the same count and under the same terms, the same measure for `O=[N+]([O-])c1ccc(Oc2ccc(C(F)(F)F)cc2[N+](=O)[O-])cc1` [Fluorodifen]: 7.76 µM; for `CCOC(=O)COC(=O)c1cc(Oc2ccc(C(F)(F)F)cc2Cl)ccc1[N+](=O)[O-]` [Fluoroglycofen-ethyl]: 13.8 µM; for `OCCN1CCN(CCCN2c3ccccc3Sc3ccc(C(F)(F)F)cc32)CC1` [Fluphenazine]: 2.79 µM.
On the same count and under the same terms, the same measure for `CCOC(=O)Nc1ccc(NCc2ccc(F)cc2)nc1N` [Flupirtine maleate]: 19 µM.
On the same count and under the same terms, the same measure for `CCN(CC)CCN1C(=O)CN=C(c2ccccc2F)c2cc(Cl)ccc21` [Flurazepam]: 3.79 µM; for `CCCCCCC(C)OC(=O)COc1nc(F)c(Cl)c(N)c1Cl` (centres unmarked) [Fluroxypyr-meptyl]: 38.9 µM; for `C[Si](Cn1cncn1)(c1ccc(F)cc1)c1ccc(F)cc1` [Flusilazole]: 40.2 µM.
`COC(=O)CSc1cc(N=c2sc(=O)n3n2CCCC3)c(F)cc1Cl` [Fluthiacet-methyl] had a concentration for half-maximal inhibition (IC50) of 38.9 µM.
The compound `CC(C)Oc1cccc(NC(=O)c2ccccc2C(F)(F)F)c1` [Flutolanil] had a half-maximal inhibitory concentration (IC50) of 50.9 µM.
For the compound `O=C1c2ccccc2C(=O)N1SC(Cl)(Cl)Cl` [Folpet], the half-inhibitory concentration (IC50) was 27.5 µM.
As for `c1ccc(OCc2ccc(CCCN3CCOCC3)cc2)cc1` [Fomocaine], the 50% inhibitory concentration (IC50) was 10.7 µM.
The same measure, in the same setting: under `CN1CCN(CCC(=O)N2c3ccccc3Sc3ccc(C(F)(F)F)cc32)CC1` [Ftormetazine] stands 4.96 µM; under `COc1ccccc1N1CCN(CCCCNC(=O)c2ccc(-c3ccc(C(C)=O)cc3)cc2)CC1` [GR 103691], 3.01 µM.
Same read-out and setting: the same measure for `CCN(C(=O)c1cc(C)cc(OC[C@H](C)Nc2ccncc2)c1)C(C)C` [GW473178E methyl benzene sulphonic acid]: 15.9 µM.
On the same count and under the same terms, the same measure for `COc1ccc(CCN(C)CCCC(C#N)(c2cc(OC)c(OC)c(OC)c2)C(C)C)cc1OC` (centres unmarked) [Gallopamil hydrochloride]: 7.28 µM; for `CN(C)c1ccc(C(=C2C=CC(=[N+](C)C)C=C2)c2ccc(N(C)C)cc2)cc1` [Gentian Violet]: 2.79 µM.
The compound `CCN(CC)C(=O)c1cc(S(=O)(=O)Cc2ccccc2)c(N2CCC(c3ccccc3)CC2)cc1N(CC)CCN(C)C` [HMR1171 trifluoroacetate (1:1)] gave a half-maximal inhibitory concentration (IC50) of 2.72 µM.
On the same count and under the same terms, under `Cc1c(Cl)c(=O)oc2cc(OP(=O)(OCCCl)OCCCl)ccc12` [Haloxon] stands 22.1 µM; under `COC(=O)C(C)Oc1ccc(Oc2ncc(C(F)(F)F)cc2Cl)cc1` (centres unmarked) [Haloxyfop-methyl], 35.1 µM.
`ClC1=C(Cl)[C@]2(Cl)[C@@H]3[C@@H](Cl)[C@H]4O[C@H]4[C@@H]3C1(Cl)C2(Cl)Cl` [Heptachlor epoxide B] showed a concentration for half-maximal inhibition (IC50) of 38.9 µM.
Same read-out and setting: under `ClC1=C(Cl)C2(Cl)C3C(Cl)C=CC3C1(Cl)C2(Cl)Cl` (centres unmarked) [Heptachlor] stands 31 µM; under `CCCCCCCCCCCCCCCC[N+](C)(C)C` [Hexadecyl trimethyl ammonium chloride], 18.1 µM; under `CCCCCCCCCCCCCCCC[N+](C)(C)C` [Hexadecyltrimethylammonium bromide], 20.1 µM.
The same measure, in the same setting: the same measure for `CCCCC(CC)CN1CN(CC(CC)CCCC)CC(C)(N)C1` (centres unmarked) [Hexetidine]: 3.01 µM; for `CCCCCCOC(=O)c1ccccc1O` [Hexyl salicylate]: 18.8 µM.
Still for that read-out and setting: the same measure for `CN1CCCN(C(c2ccccc2)c2ccc(Cl)cc2)CC1` (centres unmarked) [Homochlorcyclizine]: 1.83 µM.
Take `CCN(CC)CCNc1ccc(CO)c2sc3ccccc3c(=O)c12` [Hycanthone]: the IC50 was 10.7 µM.
The same measure, in the same setting: under `COc1ccc2c(c1OC)C(=O)O[C@@H]2[C@H]1c2cc3c(cc2CCN1C)OCO3` [Hydrastine] stands 20.8 µM; under `CC(C)Cc1ccc(C(C)C(=O)OCc2ccccn2)cc1` (centres unmarked) [Ibuprofen piconol], 16.3 µM; under `CC(C(O)c1ccc(O)cc1)N1CCC(Cc2ccccc2)CC1` (centres unmarked) [Ifenprodil], 7 µM.
In turn, `COc1cc(C(C)=O)ccc1OCCCN1CCC(c2noc3cc(F)ccc23)CC1` [Iloperidone] had a half-maximal inhibitory concentration (IC50) of 1.4 µM.
`C=CCOC(Cn1ccnc1)c1ccc(Cl)cc1Cl` (centres unmarked) [Imazalil sulfate] had an IC50 of 21.3 µM.
In the case of `C=CCOC(Cn1ccnc1)c1ccc(Cl)cc1Cl` (centres unmarked) [Imazalil], the IC50 was 29.8 µM.
The compound `Cc1c(C)n(Cc2ccccc2)c2ccc(C(=O)OCCN(C)C)cc12` [Indocate] had an IC50 of 14.2 µM.
The same measure, in the same setting: the same measure for `O=C(NC1CCN(CCc2c[nH]c3ccccc23)CC1)c1ccccc1` [Indoramin hydrochloride]: 4.42 µM; for `COP(=S)(OC)Oc1cc(Cl)c(I)cc1Cl` [Iodenphos]: 45.3 µM; for `CC(C)C1CCC(Cc2ccc(Cl)cc2)C1(O)Cn1cncn1` (centres unmarked) [Ipconazole]: 34.3 µM.
Same read-out and setting: under `O=C1c2ccccc2S(=O)(=O)N1CCCCN1CCN(c2ncccn2)CC1` [Ipsapirone] stands 16.9 µM.
Same read-out and setting: under `CC(C)CCOC(=O)C=Cc1ccccc1` [Isoamyl cinnamate] stands 39.1 µM; under `CC(C)COC(=O)C=Cc1ccccc1` [Isobutyl 3-phenylacrylate], 50.9 µM; under `CC(C)COC(=O)COc1cc(Cl)c(Cl)cc1Cl` [Isobutyl (2,4,5-trichlorophenoxy)acetate], 41.1 µM.
`CC(=O)C1(C)CC2=C(CCCC2(C)C)CC1C` (centres unmarked) [Isocyclemone E]: the IC50 was 40 µM.
The same measure, in the same setting: under `Cc1nnc2n1-c1sc(CCc3ccc(CC(C)C)cc3)cc1C(c1ccccc1Cl)=NC2C` (centres unmarked) [Israpafant] stands 19 µM.
Same read-out and setting: the same measure for `CN1[C@@H]2CC[C@H]1C[C@@H](NC(=O)n1c(=O)[nH]c3ccccc31)C2` [Itasetron]: 21.3 µM; for `O=C1C2(Cl)C3(Cl)C4(Cl)C(Cl)(Cl)C5(Cl)C3(Cl)C1(Cl)C5(Cl)C24Cl` (centres unmarked) [Kepone]: 12.7 µM.
For `O=C(c1ccc(F)cc1)C1CCN(CCn2c(=O)[nH]c3ccccc3c2=O)CC1` [Ketanserin], the 50% inhibitory concentration (IC50) is 2.68 µM.
Turning to `Cc1c(OCC(F)(F)F)ccnc1C[S+]([O-])c1nc2ccccc2[nH]1` (centres unmarked) [Lansoprazole], the half-maximal inhibitory concentration (IC50) was 43.6 µM.
Regarding `CCCCCCCCCCCCN(CCO)CCO` [Lauryldiethanolamine], half-maximal inhibition (IC50) required 11.8 µM.
Regarding `COC(=O)C1=C(C)NC(COC(N)=O)=C(C(=O)OC(C)C)C1c1cccc(Cl)c1Cl` (centres unmarked) [Lemildipine], 23.9 µM corresponded to half-maximal inhibition (IC50).
The same measure, in the same setting: the same measure for `COC(=O)C1=C(C)NC(C)=C(C(=O)OC(C)(C)CN(C)CCC(c2ccccc2)c2ccccc2)C1c1cccc([N+](=O)[O-])c1` (centres unmarked) [Lercanidipine hydrochloride]: 3.25 µM; for `CC(C)=CCC[C@](C)(O)[C@@H]1CC=C(C)CC1` [Levomenol]: 38.9 µM; for `C[C@@H]1CC(=O)NN=C1c1ccc(NN=C(C#N)C#N)cc1` [Levosimendan]: 5.67 µM.
Compound `C=CC(C)(CCC=C(C)C)OC(=O)c1ccccc1` (centres unmarked) [Linalyl benzoate] had a 50% inhibitory concentration (IC50) of 20.3 µM.
On the same count and under the same terms, the same measure for `COc1ccc(CN2CCN(C(c3ccc(F)cc3)c3ccc(F)cc3)CC2)c(OC)c1OC` [Lomerizine dihydrochloride]: 0.849 µM; for `CCCCCN(CCCCC)C(=O)C(CCC(=O)O)NC(=O)c1ccc(Cl)c(Cl)c1` (centres unmarked) [Lorglumide sodium]: 9.52 µM.
As for `CN1CCN(C2=Nc3ccccc3Oc3ccc(Cl)cc32)CC1` [Loxapine succinate], the 50% inhibitory concentration (IC50) was 12 µM.
Same read-out and setting: the same measure for `N#C/C(=C1/SC[C@@H](c2ccc(Cl)cc2Cl)S1)n1ccnc1` [Luliconazole]: 3.13 µM.
`CCCCN(CCCC)CC(O)c1cc(Cl)cc2c1-c1ccc(Cl)cc1/C2=C/c1ccc(Cl)cc1` (centres unmarked) [Lumefantrine] showed an IC50 of 3.65 µM.
Compound `CCn1nc(Cc2ccccc2)cc1C1CCN(C[C@H]2C[C@H](N(C)[C@@H](C(=O)O)C(C)C)C[C@@H]2c2cccc(F)c2)CC1` [MK-578] showed an IC50 of 20.3 µM.
Take `CN(C)c1ccc(C(=C2C=CC(=[N+](C)C)C=C2)c2ccccc2)cc1` [Malachite green oxalate]: the half-inhibitory concentration (IC50) is 3.51 µM.
The same measure, in the same setting: under `CN(C)c1ccc(C(=C2C=CC(=[N+](C)C)C=C2)c2ccccc2)cc1` [Malachite green] stands 4.25 µM; under `COC(=O)C1=C(C)NC(C)=C(C(=O)OCCN2CCN(C(c3ccccc3)c3ccccc3)CC2)C1c1cccc([N+](=O)[O-])c1` (centres unmarked) [Manidipine dihydrochloride], 7 µM; under `CN1C2CCC(C)(C)C1CC(OC(=O)C(O)(c1cccs1)c1cccs1)C2` (centres unmarked) [Mazaticol], 21.3 µM.
Compound `CC(Cc1ccccc1)NCCCCl` (centres unmarked) [Mefenorex] had a 50% inhibitory concentration (IC50) of 16.3 µM.
On the same count and under the same terms, the same measure for `CCOC(=O)C1=NN(c2ccc(Cl)cc2Cl)C(C)(C(=O)OCC)C1` (centres unmarked) [Mefenpyr-diethyl]: 46.2 µM.
The same measure, in the same setting: under `COC(=O)[C@H]1[C@H]2C[C@@H]3c4[nH]c5cc(OC)ccc5c4CCN3C[C@H]2C[C@@H](OC(=O)COc2ccc(OC)cc2)[C@@H]1OC` [Mefeserpine] stands 0.786 µM; under `CCCCC/C=C\C/C=C\CCCCCCCC(=O)NC(C)c1ccccc1` (centres unmarked) [Melinamide], 21.3 µM.
For the compound `Cc1cc(O)c2ccccc2c1O` [Menadiol], the IC50 is 2.68 µM.
As for `CC1=CC(=O)c2ccccc2C1=O` [Menadione], the IC50 is 7.28 µM.
On the same count and under the same terms, under `CC1CCC(C(C)C)C(OC(=O)c2ccccc2N)C1` (centres unmarked) [Menthyl anthranilate] stands 30.5 µM; under `N#Cc1ccc(CC(=NNC(=O)Nc2ccc(OC(F)(F)F)cc2)c2cccc(C(F)(F)F)c2)cc1` [Metaflumizone], 13.3 µM; under `CC1(C)CCC(Cc2ccc(Cl)cc2)C1(O)Cn1cncn1` (centres unmarked) [Metconazole], 50.9 µM.
Same read-out and setting: the same measure for `COc1ccc(C(c2ccc(OC)cc2)C(Cl)(Cl)Cl)cc1` [Methoxychlor]: 20.5 µM.
On the same count and under the same terms, the same measure for `Cc1cc(C(C)(C)CC(C)(C)C)ccc1OCCOCC[N+](C)(C)Cc1ccccc1` [Methylbenzethonium chloride]: 0.756 µM.
`N#CSCSC#N` [Methylene bis(thiocyanate)] gave a concentration for half-maximal inhibition (IC50) of 50.1 µM.

The record behind these values is PMC8869358, “High-Throughput Chemical Screening and Structure-Based Models to Predict hERG Inhibition” (Biology, 2022).
